In patent publication US20020137929A1, “1 - (3-heterocyclylphenyl) isothiourea, -isourea, -guanidine and -amidine herbicidal agents” (Intellectual Property Department, BASF Aktiengesellschaft, priority 1998, published 2002):

How the values were obtained:
ABUTH (Velvetleaf) = assay: Postemergence herbicidal evaluation; format: in vivo, Abutilon theophrasti; conditions: postemergence
Procedure, shortened: (§1)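 Compound is applied as a foliar spray to seedlings about two weeks old, formulated in equal parts acetone and water with 0.5% TWEEN 20 and delivered at 40 psi to give about 0.0156–0.500 kg per hectare. Injury is rated visually 0–9 after four to five weeks.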

AMBEL (Ragweed, Common) [1] = assay: Postemergence herbicidal evaluation; format: in vivo, Ambrosia artemisifolia; conditions: postemergence
Procedure, shortened: as §1

[2] = test system: CHEAL (Lambsquarters, Common); assay: Postemergence herbicidal evaluation; format: in vivo, Chenopodium album; conditions: postemergence
Procedure, shortened: as §1

ECHCG (Barnyardgrass) = assay: Postemergence herbicidal evaluation; format: in vivo, Echinochloa crus-galli; conditions: postemergence
Procedure, shortened: as §1

[3] = test system: GLXMAW (Soybean, Williams); assay: Postemergence herbicidal evaluation; format: in vivo, Glycine max, (L.) Merr. cv Williams; conditions: postemergence
Procedure, shortened: as §1

ORYSAT (Rice, Tebonnet) = assay: Postemergence herbicidal evaluation; format: in vivo, Oryza sativa, (L.) Tebonnet; conditions: postemergence
Procedure, shortened: as §1

ZEAMX (Corn, Field) = assay: Postemergence herbicidal evaluation; format: in vivo, Zea mays; conditions: postemergence
Procedure, shortened: as §1

AMBEL (Ragweed, Common) [4] = assay: Preemergence herbicidal evaluation; format: in vivo, Ambrosia artemisifolia; conditions: rated 4-5 weeks after treatment
Procedure, shortened: (§2)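 Preemergence soil application of compound, sprayed in aqueous acetone at rates equivalent to about 0.0156 to 0.500 kg per hectare onto freshly sown cups. Plant response was judged by eye on a 0-9 scale four to five weeks later.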

CASOB (Sicklepod) = assay: Preemergence herbicidal evaluation; format: in vivo, Cassia obtusifolia; conditions: rated 4-5 weeks after treatment
Procedure, shortened: as §2

[5] = test system: CHEAL (Lambsquarters, Common); assay: Preemergence herbicidal evaluation; format: in vivo, Chenopodium album; conditions: rated 4-5 weeks after treatment
Procedure, shortened: as §2

GALAP (Galium) = assay: Preemergence herbicidal evaluation; format: in vivo, Galium aparine; conditions: rated 4-5 weeks after treatment
Procedure, shortened: as §2

CYPSE (Flatsedge) [6] = assay: Preemergence weed control under flooded paddy conditions; format: in vivo, Cyperus serotinus; conditions: rated 3-4 weeks after treatment
Procedure, shortened: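 Herbicidal effect is scored visually on a 0-9 scale against an untreated control, three to four weeks after compounds are pipetted into the flood water (1.5 to 3 cm deep) over seeds planted in silt loam at 0.5 cm depth. Rates: about 0.0313 to 0.500 kg/ha.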

CYPIR (Rice Flatsedge) = assay: Postemergence weed control under flooded paddy conditions; format: in vivo, Cyperus iria; conditions: postemergence weeds, 3-4 weeks after treatment
Procedure, shortened: (§3)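 Weeds 3 to 5 cm tall and rice seedlings at the 1.5 to 2.5 leaf stage were flooded, with water held 1.5 to 3 cm above the soil. Compounds in 50/50 v/v aqueous/acetone went into the flood water at about 0.0313 to 0.500 kg/ha. Visual 0-9 ratings versus control were made 3 to 4 weeks later.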

CYPSE (Flatsedge) [7] = assay: as above; format: in vivo, Cyperus serotinus; conditions: postemergence weeds, 3-4 weeks after treatment
Procedure, shortened: as §3

With `CCOC(=O)CN1C(=O)C2(CC2)SC1=Nc1cc(-n2c(=O)cc(C(F)(F)F)n(C)c2=O)c(F)cc1Cl` [Compound 15, Ethyl 5-{{2-chloro-5-[3,6-dihydro-3-methyl-2,6-dioxo-4-(trifluoromethyl)-1(2H)-pyrimidinyl]-4-fluorophenyl}imino}-7-oxo-4-thia-6-azaspiro[2.4]-heptane-6-acetate] as the molecule, how does the ABUTH herbicidal rating (ABUTH (Velvetleaf); rate 0.0156 kg/ha) read?
Its ABUTH herbicidal rating is 9.0.

What about the ABUTH herbicidal rating (ABUTH (Velvetleaf); rate 0.0313 kg/ha) of the same molecule?
Its ABUTH herbicidal rating is 9.0.

And the ABUTH herbicidal rating (ABUTH (Velvetleaf); rate 0.0625 kg/ha)?
The ABUTH herbicidal rating was 9.0.

What about the ABUTH herbicidal rating (ABUTH (Velvetleaf); rate 0.1250 kg/ha) of the same molecule?
Its ABUTH herbicidal rating is 9.0.

What about the AMBEL herbicidal rating (AMBEL (Ragweed, Common) [1]; rate 0.0156 kg/ha) of the same molecule?
Its AMBEL herbicidal rating is 0.0.

What about the AMBEL herbicidal rating (AMBEL (Ragweed, Common) [1]; rate 0.0313 kg/ha) of the same molecule?
The AMBEL herbicidal rating was 0.0.

And the AMBEL herbicidal rating (AMBEL (Ragweed, Common) [1]; rate 0.0625 kg/ha)?
The AMBEL herbicidal rating was 4.0.

What about the AMBEL herbicidal rating (AMBEL (Ragweed, Common) [1]; rate 0.1250 kg/ha) of the same molecule?
Its AMBEL herbicidal rating is 9.0.

What about the CHEAL herbicidal rating ([2]; rate 0.0156 kg/ha) of the same molecule?
Its CHEAL herbicidal rating is 3.0.

What about the CHEAL herbicidal rating ([2]; rate 0.0313 kg/ha) of the same molecule?
The CHEAL herbicidal rating was 3.0.

And the CHEAL herbicidal rating ([2]; rate 0.0625 kg/ha)?
The CHEAL herbicidal rating was 9.0.

What about the CHEAL herbicidal rating ([2]; rate 0.1250 kg/ha) of the same molecule?
Its CHEAL herbicidal rating is 9.0.

What about the ECHCG herbicidal rating (ECHCG (Barnyardgrass); rate 0.0156 kg/ha) of the same molecule?
The ECHCG herbicidal rating was 0.0.

And the ECHCG herbicidal rating (ECHCG (Barnyardgrass); rate 0.0313 kg/ha)?
The ECHCG herbicidal rating was 0.0.

And the ECHCG herbicidal rating (ECHCG (Barnyardgrass); rate 0.0625 kg/ha)?
Its ECHCG herbicidal rating is 3.0.

What about the ECHCG herbicidal rating (ECHCG (Barnyardgrass); rate 0.1250 kg/ha) of the same molecule?
Its ECHCG herbicidal rating is 9.0.

What about the GLXMAW herbicidal rating ([3]; rate 0.0156 kg/ha) of the same molecule?
The GLXMAW herbicidal rating was 3.5.

And the GLXMAW herbicidal rating ([3]; rate 0.0313 kg/ha)?
The GLXMAW herbicidal rating was 4.0.

What about the GLXMAW herbicidal rating ([3]; rate 0.0625 kg/ha) of the same molecule?
The GLXMAW herbicidal rating was 4.5.

And the GLXMAW herbicidal rating ([3]; rate 0.1250 kg/ha)?
The GLXMAW herbicidal rating was 5.5.

What about the ORYSAT herbicidal rating (ORYSAT (Rice, Tebonnet); rate 0.0156 kg/ha) of the same molecule?
The ORYSAT herbicidal rating was 4.5.

And the ORYSAT herbicidal rating (ORYSAT (Rice, Tebonnet); rate 0.0313 kg/ha)?
The ORYSAT herbicidal rating was 5.0.

And the ORYSAT herbicidal rating (ORYSAT (Rice, Tebonnet); rate 0.0625 kg/ha)?
Its ORYSAT herbicidal rating is 6.5.

What about the ORYSAT herbicidal rating (ORYSAT (Rice, Tebonnet); rate 0.1250 kg/ha) of the same molecule?
The ORYSAT herbicidal rating was 6.5.

What about the ZEAMX herbicidal rating (ZEAMX (Corn, Field); rate 0.0156 kg/ha) of the same molecule?
The ZEAMX herbicidal rating was 5.0.

What about the ZEAMX herbicidal rating (ZEAMX (Corn, Field); rate 0.0313 kg/ha) of the same molecule?
Its ZEAMX herbicidal rating is 6.0.

And the ZEAMX herbicidal rating (ZEAMX (Corn, Field); rate 0.0625 kg/ha)?
The ZEAMX herbicidal rating was 7.0.

And the ZEAMX herbicidal rating (ZEAMX (Corn, Field); rate 0.1250 kg/ha)?
Its ZEAMX herbicidal rating is 7.5.

What about the “AMBEL preemergence herbicidal rating” value (AMBEL (Ragweed, Common) [4]; rate 0.0156 kg/ha) of the same molecule?
Its value is 0.5.

What about the “AMBEL preemergence herbicidal rating” value (AMBEL (Ragweed, Common) [4]; rate 0.0313 kg/ha) of the same molecule?
The value was 1.0.

What about the “AMBEL preemergence herbicidal rating” value (AMBEL (Ragweed, Common) [4]; rate 0.0625 kg/ha) of the same molecule?
Its value is 1.5.

And the “AMBEL preemergence herbicidal rating” value (AMBEL (Ragweed, Common) [4]; rate 0.1250 kg/ha)?
The value was 3.0.

What about the “AMBEL preemergence herbicidal rating” value (AMBEL (Ragweed, Common) [4]; rate 0.2500 kg/ha) of the same molecule?
Its value is 9.0.

And the “CASOB preemergence herbicidal rating” value (CASOB (Sicklepod); rate 0.0156 kg/ha)?
Its value is 0.0.

What about the “CASOB preemergence herbicidal rating” value (CASOB (Sicklepod); rate 0.0313 kg/ha) of the same molecule?
Its value is 0.5.

And the “CASOB preemergence herbicidal rating” value (CASOB (Sicklepod); rate 0.0625 kg/ha)?
Its value is 0.5.

What about the “CASOB preemergence herbicidal rating” value (CASOB (Sicklepod); rate 0.1250 kg/ha) of the same molecule?
Its value is 2.0.

What about the “CASOB preemergence herbicidal rating” value (CASOB (Sicklepod); rate 0.2500 kg/ha) of the same molecule?
The value was 6.5.

What about the “CHEAL preemergence herbicidal rating” value ([5]; rate 0.0156 kg/ha) of the same molecule?
Its value is 6.5.

What about the “CHEAL preemergence herbicidal rating” value ([5]; rate 0.0313 kg/ha) of the same molecule?
Its value is 9.0.

What about the “CHEAL preemergence herbicidal rating” value ([5]; rate 0.0625 kg/ha) of the same molecule?
The value was 9.0.

And the “CHEAL preemergence herbicidal rating” value ([5]; rate 0.1250 kg/ha)?
The value was 9.0.

And the “CHEAL preemergence herbicidal rating” value ([5]; rate 0.2500 kg/ha)?
Its value is 9.0.

What about the “GALAP preemergence herbicidal rating” value (GALAP (Galium); rate 0.0156 kg/ha) of the same molecule?
Its value is 0.0.

And the “GALAP preemergence herbicidal rating” value (GALAP (Galium); rate 0.0313 kg/ha)?
The value was 0.0.

What about the “GALAP preemergence herbicidal rating” value (GALAP (Galium); rate 0.0625 kg/ha) of the same molecule?
Its value is 9.0.

And the “GALAP preemergence herbicidal rating” value (GALAP (Galium); rate 0.1250 kg/ha)?
The value was 9.0.

What about the “GALAP preemergence herbicidal rating” value (GALAP (Galium); rate 0.2500 kg/ha) of the same molecule?
The value was 9.0.

What about the “Herbicidal rating CYPSE” value (CYPSE (Flatsedge) [6]; 0.0313 kg/ha) of the same molecule?
Its value is 0.0.

What about the “Herbicidal rating CYPSE” value (CYPSE (Flatsedge) [6]; 0.0625 kg/ha) of the same molecule?
The value was 0.0.

And the “Herbicidal rating CYPSE” value (CYPSE (Flatsedge) [6]; 0.1250 kg/ha)?
The value was 0.0.

And the “Herbicidal rating CYPSE” value (CYPSE (Flatsedge) [6]; 0.2500 kg/ha)?
Its value is 0.0.

What about the “Herbicidal rating CYPIR” value (CYPIR (Rice Flatsedge); rate 0.0313 kg/ha) of the same molecule?
The value was 2.0.

What about the “Herbicidal rating CYPIR” value (CYPIR (Rice Flatsedge); rate 0.0625 kg/ha) of the same molecule?
The value was 2.0.

And the “Herbicidal rating CYPIR” value (CYPIR (Rice Flatsedge); rate 0.1250 kg/ha)?
Its value is 6.0.

What about the “Herbicidal rating CYPIR” value (CYPIR (Rice Flatsedge); rate 0.2500 kg/ha) of the same molecule?
Its value is 7.0.

What about the “Herbicidal rating CYPSE” value (CYPSE (Flatsedge) [7]; rate 0.0313 kg/ha) of the same molecule?
Its value is 0.0.

And the “Herbicidal rating CYPSE” value (CYPSE (Flatsedge) [7]; rate 0.0625 kg/ha)?
Its value is 0.0.

And the “Herbicidal rating CYPSE” value (CYPSE (Flatsedge) [7]; rate 0.1250 kg/ha)?
Its value is 0.0.

And the “Herbicidal rating CYPSE” value (CYPSE (Flatsedge) [7]; rate 0.2500 kg/ha)?
The value was 0.0.
